Measurements as given in BindingDB's records for doi:10.1016/j.bmcl.2008.12.050 (Merck Research Laboratories, 2009).
Structures can show the parent of a compound that is named as a salt.

Experiment: Antagonist activity at human CCR2 receptor expressed in CHO cells by chemotaxis assay

In the case of CC(C)[C@]1(C(=O)NCc2cc(C(F)(F)F)cc(C(F)(F)F)c2)CC[C@@H](NC2CCOCC2C(F)(F)F)C1 (stereo partly drawn) [(1S,3R)-N-(3,5-bis(trifluoromethyl)benzyl)-1-isopropyl-3-(3-(trifluoromethyl)tetrahydro-2H-pyran-4-ylamino)cyclopentanecarboxamide], the IC50 is reported as 1 nM.
Compound CC1COCCC1N[C@@H]1CC[C@@](C(=O)NCc2cc(C(F)(F)F)cc(C(F)(F)F)c2)(C(C)C)C1 (stereo partly drawn) [(1S,3R)-N-(3,5-bis(trifluoromethyl)benzyl)-1-isopropyl-3-(3-methyltetrahydro-2H-pyran-4-ylamino)cyclopentanecarboxamide] has an IC50 of 0.1 nM.
Compound CCCC1COCCC1N[C@@H]1CC[C@@](C(=O)NCc2cc(C(F)(F)F)cc(C(F)(F)F)c2)(C(C)C)C1 (stereo partly drawn) [(1S,3R)-N-(3,5-bis(trifluoromethyl)benzyl)-1-isopropyl-3-(3-propyltetrahydro-2H-pyran-4-ylamino)cyclopentanecarboxamide] has an IC50 of 5.1 nM.
For CC(C)[C@]1(C(=O)NCc2cc(C(F)(F)F)cc(C(F)(F)F)c2)CC[C@@H](NC2COC2)C1 [(1S,3R)-N-(3,5-bis(trifluoromethyl)benzyl)-1-isopropyl-3-(oxetan-3-ylamino)cyclopentanecarboxamide trifluoroacetate], the IC50 was 3.3 nM.
With CCC1COCCC1N[C@@H]1CC[C@@](C(=O)NCc2cc(C(F)(F)F)cc(C(F)(F)F)c2)(C(C)C)C1 (stereo partly drawn) [(1S,3R)-N-(3,5-bis(trifluoromethyl)benzyl)-3-(3-ethyltetrahydro-2H-pyran-4-ylamino)-1-isopropylcyclopentanecarboxamide] the IC50 was 0.3 nM.
CC(C)[C@]1(C(=O)NCc2cc(C(F)(F)F)cc(C(F)(F)F)c2)CC[C@@H](NC2CCOCC2F)C1 (stereo partly drawn) [(1S,3R)-N-(3,5-bis(trifluoromethyl)benzyl)-3-(3-fluorotetrahydro-2H-pyran-4-ylamino)-1-isopropylcyclo pentanecarboxamide] gave an IC50 of 0.8 nM.
